Assay results reported in paper PMC7470102, “Synthesis, anticancer evaluation and molecular docking studies of new benzimidazole- 1,3,4-oxadiazole derivatives as human topoisomerase types I poison” (Journal of Enzyme Inhibition and Medicinal Chemistry, 2020).

Experiments:
[1] = test system: A549 (lung carcinoma cell line); assay: MTT cytotoxicity assay, A549; format: cell-based; conditions: Homo sapiens, A549, MTT assay, read-out: IC50 against A549
Experimental: (§1) The anticancer activity of compounds 5a–5o were screened according to the MTT assays. The MTT assays were performed as previously described[32]^,[33]. Anticancer activity of final compounds was assessed against five different cancer cell lines A549 (lung carcinoma cell line), HeLa (cervical cell line), MCF-7 (human breast adenocarcinoma cell line), HepG2 (human liver carcinoma cell line) and C6 (rat glioma cell line) cell lines as well as NIH3T3 (mouse embryo fibroblast cell line). Doxorubicin and Hoechst 33342 were used as the reference drugs in the MTT assays.
(§2) The benzimidazole-1,3,4-oxadiazole derivatives (5a-5o) were tested their cytotoxic effects in vitro using five cancer cell line A549 (lung carcinoma cell line), HeLa (cervical cell line), MCF-7 (human breast adenocarcinoma cell line), HepG2 (human liver carcinoma cell line) and C6 (rat glioma cell line) cell lines as well as NIH3T3 (mouse embryo fibroblast cell line). Doxorubicin and Hoechst 33342 were used for this study as a reference drugs.

[2] = test system: C6 (rat glioma cell line); assay: MTT cytotoxicity assay, C6; format: cell-based; conditions: Rattus norvegicus, read-out: IC50 against C6
Experimental: as §1, §2

Topoisomerase I = molecular target: T1, Topoisomerase I (Homo sapiens, UniProt P11387); assay: DNA topoisomerase I assay (relaxation of supercoiled plasmid DNA, agarose gel); format: biochemical; conditions: agarose gel electrophoresis, camptothecin positive control, Figure 12
T1 construct: purchased TopoGen TG1018-2
T1 sequence (P11387 1-765): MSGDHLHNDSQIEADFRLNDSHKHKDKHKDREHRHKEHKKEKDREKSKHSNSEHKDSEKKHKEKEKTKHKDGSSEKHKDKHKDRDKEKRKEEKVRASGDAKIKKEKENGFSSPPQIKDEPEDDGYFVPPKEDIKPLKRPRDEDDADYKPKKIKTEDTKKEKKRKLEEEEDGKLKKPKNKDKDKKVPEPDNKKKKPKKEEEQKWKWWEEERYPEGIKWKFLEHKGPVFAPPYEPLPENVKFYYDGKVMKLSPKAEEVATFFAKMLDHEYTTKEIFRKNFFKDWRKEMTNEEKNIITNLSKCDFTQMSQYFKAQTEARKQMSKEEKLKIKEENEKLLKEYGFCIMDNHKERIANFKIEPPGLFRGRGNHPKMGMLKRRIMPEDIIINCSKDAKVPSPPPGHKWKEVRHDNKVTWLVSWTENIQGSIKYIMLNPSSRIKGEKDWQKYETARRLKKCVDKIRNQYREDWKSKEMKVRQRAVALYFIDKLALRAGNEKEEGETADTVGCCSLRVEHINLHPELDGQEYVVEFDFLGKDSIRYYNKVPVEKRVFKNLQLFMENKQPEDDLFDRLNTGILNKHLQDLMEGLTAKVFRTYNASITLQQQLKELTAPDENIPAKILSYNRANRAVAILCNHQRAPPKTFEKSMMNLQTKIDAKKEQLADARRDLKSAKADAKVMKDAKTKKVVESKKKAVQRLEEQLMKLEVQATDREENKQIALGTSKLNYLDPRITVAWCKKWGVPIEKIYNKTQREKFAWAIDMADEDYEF
Experimental: The topoisomerase I inhibition activities of final compounds were measured as relaxation of supercoiled plasmid DNA using agarose gel electrophoresis and camptothecin was used as a positive control. The assay was carried out in a final volume of 20 µl reaction volume containing 2 µl of 10xTGS Buffer, 6 µl water, 2 µl supercoiled plasmid DNA, 2 µl test compound, 2 µl of Top1, 2 ul 10% SDS, 2 µl proteinase K, 2 µl DNA loading dye. After incubation of reaction mixtures at 37 °C for 30 min, electrophoresis was done on a 1% agarose gel at a potential 50 V for 75 min using 1xTAE buffer.
To determine whether the DNA intercalation properties of compounds 5a, 5b, 5d, 5e, 5k, 5l, 5n and 5o might result in Topo I inhibition, agarose gel electrophores is assay was performed to evaluate the Topo I inhibitory activity of them via agarose-gel electrophoresis and CPT was used as the positive control. The TopoGEN Topoisomerase I Drug Screening Kit were optimised and implemented to accomplish this goal.
In a previous studies, it was said that the compounds poisoning topoisomerase caused the formation of nick bands in such gel appearances, while the formation of Supercoiled bands was said to be caused by catalytic inhibitors that bound to either DNA or enzyme[40]^,[41].

[3] = test system: HepG2 (human liver carcinoma cell line); assay: MTT cytotoxicity assay, HepG2; format: cell-based; conditions: Homo sapiens, read-out: IC50 against HepG2
Experimental: as §1, §2

[4] = test system: MCF-7 (human breast adenocarcinoma cell line); assay: MTT cytotoxicity assay, MCF-7; format: cell-based; conditions: Homo sapiens, MCF7, MCF-7 cell line, read-out: IC50 against MCF-7
Experimental: as §1, §2

[5] = test system: NIH3T3 (mouse embryo fibroblast cell line); assay: MTT cytotoxicity assay, NIH3T3 healthy cells; format: cell-based; conditions: Mus musculus, read-out: IC50 against NIH3T3
Experimental: The anticancer activity of compounds 5a–5o were screened according to the MTT assays. The MTT assays were performed as previously described[32]^,[33]. Anticancer activity of final compounds was assessed against five different cancer cell lines A549 (lung carcinoma cell line), HeLa (cervical cell line), MCF-7 (human breast adenocarcinoma cell line), HepG2 (human liver carcinoma cell line) and C6 (rat glioma cell line) cell lines as well as NIH3T3 (mouse embryo fibroblast cell line). Doxorubicin and Hoechst 33342 were used as the reference drugs in the MTT assays. It is crucial that an anticancer agent affects the cancer cell line but having minimal or no side-effect on healthy cells. For this purpose, the cytotoxic effects of the active compounds on the NIH3T3 cell line were investigated (Table 2).

HeLa cells = assay: DNA synthesis inhibition assay (BrdU), HeLa; format: cell-based; conditions: 48 h, 5b 0.698, 5l 0.224, 5n 0.205, doxorubicin 14.280 µg/mL
Experimental: (§3) The BrdU cell proliferation method was performed to analyse the effects of the active compounds on proliferation of cancer cells. Cancer cells were seeded into the 96-well plates at a density of 1 × 10^4 cells. Compounds were added into the each well at three different concentrations (IC50/2, IC50 and 2xIC50) and the plates were incubated for 24 h. At the end of the incubation period, BrdU solution was added and cells were reincubated for 2 h at 37 °C. Anti-BrdU-POD ([…]) was added and the mixture was incubated for 90 min. Microplates were washed with PBS for three times. After adding substrate solution, the mixture was incubated for 15 min. OD of the wells were determined at 492 nm. Proliferation of control cells was assessed as 100% and growth inhibition % of cells, treated with test compounds and […] were calculated.
(§4) According to the MTT assay, compound 5n for A549 cell line; compounds 5a, 5d, 5e, 5o for MCF-7 cell line; compound 5k for C6 cell line; compound 5a for HepG2 cell line; compounds 5b, 5l and 5n for HeLa cell line were selected for the DNA synthesis inhibition assay. A549, C6, MCF-7, HepG2 and HeLa cells were incubated with three different concentrations (IC50/2, IC50, and […]) of the compounds for 24 and 48 h time periods. […] Doxorubicin was used as positive control.

[6] = test system: HeLa (cervical cell line); assay: MTT cytotoxicity assay, HeLa; format: cell-based; conditions: Homo sapiens, read-out: IC50 against HeLa
Experimental: as §1, §2

MCF-7 cell line = assay: Flow cytometric analysis (Annexin V/PI), MCF-7; format: cell-based, human; conditions: MCF-7 cells
Experimental: (§5) Death pathway of the carcinogenic cell lines was detected by Annexin V-FITC Apoptosis Detection Kit (BD, Pharmingen) as reported previously described. […] FCS Express software was used to display the percent of normal and apoptotic cells at different stages. […] The experiments were carried out in triplicates.
(§6) Annexin V/PI staining on tested cancer cells treated with the active compounds was performed to investigate induction of apoptosis. […] According to the MTT assay, compound 5n for A549 cell line; compounds 5a, 5d, 5e, 5o for MCF-7 cell line; compound 5k for C6 cell line; compound 5a for HepG2 cell line; compounds 5b, 5l and 5n for HeLa cell line were selected for the flow cytometric analysis. Furthermore, flow cytometry studies were performed for reference drug doxorubicin. Flow cytometric analysis diagrams of tested compounds and doxorubicin at IC50/2, IC50, and 2xIC50 concentrations on cancer cells were presented in Figures 7–11.

MCF7 cells = assay: DNA synthesis inhibition assay (BrdU), MCF7; format: cell-based, human; conditions: 48 h, 5e at 7.318 µg/mL, doxorubicin at 10.525 µg/mL
Experimental: as §3, §4

HepG2 cell line = assay: Flow cytometric analysis (Annexin V/PI), HepG2; format: cell-based, human; conditions: at IC50 concentrations, 24 h incubation
Experimental: as §5, §6

HepG2 cells = assay: DNA synthesis inhibition assay (BrdU), HepG2; format: cell-based, human; conditions: 5a at 5.695 µg/mL, doxorubicin at 16.482 µg/mL
Experimental: as §3, §4

A549 cell line = assay: Flow cytometric analysis (Annexin V/PI), A549; format: cell-based; conditions: at IC50 concentrations
Experimental: as §5, §6

C6 cell line = assay: Flow cytometric analysis (Annexin V/PI), C6; format: cell-based, rat; conditions: at IC50 concentrations
Experimental: as §5, §6

A549 cells = assay: DNA synthesis inhibition assay (BrdU), A549; format: cell-based; conditions: 48 h
Experimental: as §3, §4

HeLa cell line = assay: Flow cytometric analysis (Annexin V/PI), HeLa; format: cell-based
Experimental: as §5, §6

Row | Compound | IC50 [1] | IC50 [2] | Topo I inhibition activity (Topoisomerase I) | IC50 [3] | IC50 [4] | IC50 [5] | % DNA synthesis inhibition (HeLa cells) | IC50 [6] | percentage of apoptosis (early + late apoptotic cells) (MCF-7 cell line) | % DNA synthesis inhibition (MCF7 cells) | percentage of apoptotic cells (HepG2 cell line) | % DNA synthesis inhibition (HepG2 cells; 24 h) | % DNA synthesis inhibition (HepG2 cells; 48 h) | percentage of apoptotic cells (A549 cell line) | percentage of apoptotic cells (C6 cell line) | % DNA synthesis inhibition (A549 cells; 5n at 5.39 µg/mL, doxorubicin at 6.21 µg/mL) | % DNA synthesis inhibition (A549 cells; 5n at 7.39 µg/mL, doxorubicin at 12.42 µg/mL) | % DNA synthesis inhibition (A549 cells; 5n at 14.77 µg/mL, doxorubicin at 24.84 µg/mL) | inhibition at 14.28 µg/mL (HeLa cells; Homo sapiens) | percentage of apoptotic cells (HeLa cell line)
1 | CCN1CCN(C(=O)CSc2nnc(-c3ccc4nc(-c5ccc(O)cc5)[nH]c4c3)o2)CC1 [5b, 2-((5–(2-(4-Hydroxyphenyl)-1H-benzo[d]imidazol-6-yl)-1,3,4-oxadiazol-2-yl)thio)-1–(4-ethyl-piperazin-1-yl) -ethane-1-on] | ≥ 100 µM | ≥ 100 µM | potent topo I inhibition activity | ≥ 100 µM | ≥ 100 µM | 944.4 ± 7.62 µM | 49.70% | 0.698 ± 0.032 µM | – | – | – | – | – | – | – | – | – | – | – | –
2 | O=C(CSc1nnc(-c2ccc3nc(-c4ccc(O)cc4)[nH]c3c2)o1)N1CCN(c2ncccn2)CC1 [5e, 2-((5–(2-(4-Hydroxyphenyl)-1H-benzo[d]imidazol-6-yl)-1,3,4-oxadiazol-2-yl)thio)-1-(4-(pyrimidine-2-yl)-piperazin-1-yl)-ethane-1-on] | – | ≥ 100 µM | potent topo I inhibition activity | ≥ 100 µM | 7.32 ± 0.352 µM | 54 ± 2.68 µM | – | ≥ 100 µM | 13.1% | 93.81% | – | – | – | – | – | – | – | – | – | –
3 | CN1CCN(C(=O)CSc2nnc(-c3ccc4nc(-c5ccc(O)cc5)[nH]c4c3)o2)CC1 [5a, 2-((5–(2-(4-Hydroxyphenyl)-1H-benzo[d]imidazol-6-yl)-1,3,4-oxadiazol-2-yl)thio)-1–(4-methyl-piperazin-1-yl) -ethane-1-on] | 43.3 ± 1.79 µM | 15.6 ± 0.615 µM | potent topo I inhibition activity | 5.7 ± 0.283 µM | 5.7 ± 0.254 µM | 39.1 ± 1.94 µM | – | 14 ± 0.65 µM | 15.4% | – | 13.2% | 60.89% | 72.05% | – | – | – | – | – | – | –
4 | COc1cccc2c1C(=O)c1c(O)c3c(c(O)c1C2=O)C[C@@](O)(C(=O)CO)C[C@@H]3O[C@H]1C[C@H](N)[C@H](O)[C@H](C)O1 [Dox., doxorubicin, reference compound] | 12.4 ± 0.521 µM | 28.7 ± 1.23 µM | – | 16.5 ± 0.804 µM | 10.5 ± 0.472 µM | 1111 ± 8.25 µM | – | 14.3 ± 0.704 µM | 12.7% | 84.60% | 9.4% | 42.80% | 74.22% | 19.2% | 13.7% | 62.78% | 73.43% | 81.22% | 66.5% | –
5 | CCOc1ccc(-c2nc3ccc(-c4nnc(SCC(=O)N5CCN(CC)CC5)o4)cc3[nH]2)cc1 [5l, 2-((5-(2-(4-Ethoxyphenyl)-1H-benzo[d]imidazol-6-yl)-1,3,4-oxadiazol-2-yl)thio)-1–(4-ethyl-piperazin-1-yl)-ethane-1-on] | 31 ± 1.53 µM | ≥ 100 µM | potent topo I inhibition activity | ≥ 100 µM | ≥ 100 µM | 113 ± 5.47 µM | 56.01% | 0.224 ± 0.011 µM | – | – | – | – | – | – | – | – | – | – | – | 8.6%
